Data published in ChEMBL document CHEMBL1201862, “PubChem BioAssay data set” (2004).
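96-well plates; 48 h exposure; 5 concentrations. Endpoints by linear interpolation between flanking doses. Not reached: highest tested concentration assigned. GI50 = concentration required for 50% inhibition of growth.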 Activity calls are given as the source filed them. Rule as the data show it: active = GI50 up to about 1.1 µM and inactive = higher.

Experiments:
Test in all cases: growth of human tumour cells (NCI), 48 h
DLD-1 = test system: DLD-1
DMS-114 = test system: DMS-114
KM-20L2 = test system: KM-20L2
LXFL 529 = test system: LXFL 529
M19-MEL = test system: M19-MEL
SNB-78 = test system: SNB-78
XF498 = test system: XF498
HOP-18 = test system: HOP-18
RXF 631 = test system: RXF 631

SMILES	GI50 (DLD-1)	GI50 (DMS-114)	GI50 (KM-20L2)	GI50 (LXFL 529)	GI50 (M19-MEL)	GI50 (SNB-78)	GI50 (XF498)	GI50 (HOP-18)	GI50 (RXF 631)
CC1=C(O)/C(=C/C(C)CCC/C(C)=C/C=C/C(C)CCCc2ccoc2)OC1=O (stereo unspecified)	31 µM (inactive)	49.7 µM (inactive)	29.6 µM (inactive)	31.8 µM (inactive)	48.3 µM (inactive)	18.3 µM (inactive)	7.08 µM (inactive)	–	–
Oc1ncnc2c1sc(=S)n2-c1ccccc1	> 100 µM (inactive)	> 100 µM (inactive)	> 100 µM (inactive)	> 100 µM (inactive)	> 100 µM (inactive)	> 100 µM (inactive)	> 100 µM (inactive)	–	–
C[N+](C)(C)CC1CCCC(C[N+](C)(C)C)C1=NO (stereo unspecified)	> 100 µM (inactive)	–	> 100 µM (inactive)	> 100 µM (inactive)	> 100 µM (inactive)	> 100 µM (inactive)	> 100 µM (inactive)	> 100 µM (inactive)	–
CN(C)c1n/c(=N/c2ccc3c(c2)OCO3)ss1	79.8 µM (inactive)	38.6 µM (inactive)	39.9 µM (inactive)	35.3 µM (inactive)	> 100 µM (inactive)	44 µM (inactive)	48.5 µM (inactive)	> 100 µM (inactive)	–
O=C(c1ccccc1)c1cn(/N=C\c2ccccc2)c(=O)nc1-c1ccccc1	> 100 µM (inactive)	> 100 µM (inactive)	> 100 µM (inactive)	> 100 µM (inactive)	> 100 µM (inactive)	> 100 µM (inactive)	–	> 100 µM (inactive)	–
O=C1c2ccccc2C(=O)c2sc(Nc3cccc(Cl)c3)nc21	1.94 µM (inactive)	1.36 µM (inactive)	7.45 µM (inactive)	1.48 µM (inactive)	0.322 µM (active)	–	1.73 µM (inactive)	1.63 µM (inactive)	–
COC(=O)[C@H](C)[C@H]1CC[C@@](C)([C@H]2CC3C(C)(C)[C@H]4CCC(C)=C[C@H]4C[C@@]3(C)O2)OO1 (stereo partly specified)	12 µM (inactive)	3.58 µM (inactive)	13.4 µM (inactive)	2.03 µM (inactive)	13.2 µM (inactive)	10.8 µM (inactive)	10 µM (inactive)	–	–
CC(=O)OC1CC2C(C)(C)OC(=O)CC(OC(C)=O)[C@]2(C)C2CCC3(C)C(=CCC3[C@H]3COC(=O)C3)[C@]12C (stereo partly specified)	71.6 µM (inactive)	70.1 µM (inactive)	> 100 µM (inactive)	51.8 µM (inactive)	80.2 µM (inactive)	> 100 µM (inactive)	> 100 µM (inactive)	–	–
CC(=O)C(CN(C)Cc1ccccc1)C(c1ccccc1)c1c(O)c2ccccc2oc1=O (stereo unspecified)	> 100 µM (inactive)	> 100 µM (inactive)	55.8 µM (inactive)	> 100 µM (inactive)	> 100 µM (inactive)	> 100 µM (inactive)	–	–	–
CC1C[C@H](C)CC(C(O)CC2CC(=O)N(Cc3ccccc3)C(=O)C2)C1O (stereo partly specified)	> 100 µM (inactive)	> 100 µM (inactive)	> 100 µM (inactive)	> 100 µM (inactive)	> 100 µM (inactive)	> 100 µM (inactive)	–	> 100 µM (inactive)	–
CSc1nc(NC2OCC(OC(C)=O)C(OC(C)=O)C2OC(C)=O)c2c(n1)OCC2=O (stereo unspecified)	> 100 µM (inactive)	> 100 µM (inactive)	> 100 µM (inactive)	> 100 µM (inactive)	> 100 µM (inactive)	> 100 µM (inactive)	–	–	–
Cc1cn2c(=O)c3ncn(C4OC(CO)C(O)C4O)c3n(C)c2n1 (stereo unspecified)	> 100 µM (inactive)	> 100 µM (inactive)	> 100 µM (inactive)	> 100 µM (inactive)	> 100 µM (inactive)	> 100 µM (inactive)	–	> 100 µM (inactive)	> 100 µM (inactive)
CCCNc1ncnc2c1cnn2C	–	> 100 µM (inactive)	> 100 µM (inactive)	–	> 100 µM (inactive)	> 100 µM (inactive)	> 100 µM (inactive)	> 100 µM (inactive)	–
CCn1c(SC(C)C(=O)c2c(C)n(C)n(-c3ccccc3)c2=O)nc2ccccc2c1=O (stereo unspecified)	> 100 µM (inactive)	> 100 µM (inactive)	> 100 µM (inactive)	> 100 µM (inactive)	> 100 µM (inactive)	> 100 µM (inactive)	–	–	–
C=C1CCC2C(C)(CO)C(O)CCC2(C)C1C/C=C1/CCOC1=O (stereo unspecified)	> 100 µM (inactive)	–	> 100 µM (inactive)	> 100 µM (inactive)	> 100 µM (inactive)	–	–	> 100 µM (inactive)	–
Cc1ccc(/N=N/c2c(-c3ccccc3)nn(C(=O)CC(=O)Nc3ccc(Cl)cc3)c2-c2ccccc2)cc1	83.6 µM (inactive)	44.5 µM (inactive)	63.4 µM (inactive)	27.9 µM (inactive)	–	79.6 µM (inactive)	–	> 100 µM (inactive)	59.4 µM (inactive)
C=C1CC[C@@H]2C(C)(C)CCC[C@@]2(C)[C@@H]1Cc1cc(O)ccc1O	5.21 µM (inactive)	1.89 µM (inactive)	17.3 µM (inactive)	2.11 µM (inactive)	3.56 µM (inactive)	1.93 µM (inactive)	–	11.2 µM (inactive)	–
Cc1cc(NS(=O)(=O)c2ccc(Nc3c4ccccc4nc4c(C(=O)N5CCN(CCO)CC5)ccc(Cl)c34)cc2)no1	52.5 µM (inactive)	> 100 µM (inactive)	> 100 µM (inactive)	–	> 100 µM (inactive)	–	> 100 µM (inactive)	–	83.9 µM (inactive)
NS(=O)(=O)c1ccc(NC(=O)Cc2nc3ccccc3s2)cc1	15.5 µM (inactive)	15.1 µM (inactive)	18.7 µM (inactive)	16.8 µM (inactive)	14.6 µM (inactive)	19.5 µM (inactive)	16.2 µM (inactive)	17.8 µM (inactive)	16.4 µM (inactive)
COc1ccc(OC)c2c1C(=O)C(Cl)=C(Cl)C2=O	3.84 µM (inactive)	2.16 µM (inactive)	10.5 µM (inactive)	1.95 µM (inactive)	4.68 µM (inactive)	4.61 µM (inactive)	1.61 µM (inactive)	3.54 µM (inactive)	–
CN(C)CCCNc1ccc2ncn3c4ccccc4c(=O)c1c23	4.94 µM (inactive)	10.5 µM (inactive)	7.41 µM (inactive)	8.55 µM (inactive)	12.1 µM (inactive)	14.2 µM (inactive)	–	5.73 µM (inactive)	4.7 µM (inactive)
CCN(CC)CCNc1ccc2ncn3c4ccc(O)cc4c(=O)c1c23	0.544 µM (active)	–	1.23 µM (inactive)	1.26 µM (inactive)	1.38 µM (inactive)	0.541 µM (active)	0.173 µM (active)	5.92 µM (inactive)	–
CCOc1ccc(/N=C\c2ccc3cc(C)ccc3n2)cc1	48.8 µM (inactive)	31.1 µM (inactive)	34.7 µM (inactive)	30.5 µM (inactive)	52.4 µM (inactive)	> 100 µM (inactive)	> 100 µM (inactive)	> 100 µM (inactive)	> 100 µM (inactive)
Cc1ccc(NC(=O)CC2C(=O)Nc3ccccc3[S+]2[O-])cc1C (stereo unspecified)	> 100 µM (inactive)	48.1 µM (inactive)	> 100 µM (inactive)	88.3 µM (inactive)	> 100 µM (inactive)	> 100 µM (inactive)	> 100 µM (inactive)	–	–
Cn1cnnc1Sc1c([N+](=O)[O-])nc(-c2ccc([N+](=O)[O-])cc2)n1C	15.3 µM (inactive)	17.9 µM (inactive)	–	13.8 µM (inactive)	17.8 µM (inactive)	18.3 µM (inactive)	10.4 µM (inactive)	17.4 µM (inactive)	17.7 µM (inactive)
O/N=C1/C(=C/c2ccc3c(c2)OCO3)CCCC1C(NO)c1ccc2c(c1)OCO2 (stereo unspecified)	28.4 µM (inactive)	22.6 µM (inactive)	18.2 µM (inactive)	20 µM (inactive)	24.8 µM (inactive)	31.3 µM (inactive)	22.7 µM (inactive)	18.2 µM (inactive)	–
CC(C)Cc1ccc(C(C)CC2=CCC(CN(C)C)C2=O)cc1 (stereo unspecified)	2.33 µM (inactive)	4.27 µM (inactive)	11.4 µM (inactive)	1.73 µM (inactive)	4.11 µM (inactive)	6.43 µM (inactive)	–	18.5 µM (inactive)	16.6 µM (inactive)
O=C(O)CN(c1ccccc1)S(=O)(=O)c1cccc([N+](=O)[O-])c1	> 100 µM (inactive)	–	> 100 µM (inactive)	> 100 µM (inactive)	> 100 µM (inactive)	–	> 100 µM (inactive)	> 100 µM (inactive)	–
CCN(CC)[C@@H]1c2cc3c(cc2C(c2cc(OC)c(O)c(OC)c2)C2C(=O)CO[C@@H]21)OCO3 (stereo partly specified)	> 100 µM (inactive)	> 100 µM (inactive)	> 100 µM (inactive)	> 100 µM (inactive)	> 100 µM (inactive)	–	> 100 µM (inactive)	–	> 100 µM (inactive)
